One test has as its system THP-1 cells. The test is described as follows: Cell growth inhibition assay (CellTiter-Glo), THP-1. The test is classed as cell-based, human. To be noted: THP-1, 4 days; for GI50: half-maximal growth inhibition; for THP-1 TGI: total growth inhibition. The method, then: The human leukemia cell lines MV-4-11, THP-1 and K-562 were employed to characterize the effect of BET inhibitors on cellular proliferation and viability. Cells were obtained from the American Type Culture Collection (ATCC) and cultured at 37° C. in a humidified 5% CO2 incubator in the following media: MV-4-11: DMEM high glucose (Animed #1-26F01-I), 10% FCS (Animed #2-01F26-I), 4 mM L-Glutamine (Animed #5-10K50), 1 mM Sodium Pyruvate (Animed # G03625P), 1× Penicillin-Streptomycin (Animed # F12478P); K-562: Iscove's MEM (Animed #1-28F16-I), 10% FCS (Animed #2-01F26-I), 4 mM L-Glutamine (Animed #5-10K50), 1× Penicillin-Streptomycin (Animed # F12478P); THP-1: RPMI-1640 (Animed #1-41F01-I), 10% FCS (Animed #2-01F26-I), 2 mM L-Glutamine (Animed #5-10K50), 10 mM HEPES (Animed #5-31F100), 1 mM Sodium Pyruvate (Animed # G03625P), 1× Penicillin-Streptomycin (Animed # F12478P). The AML lines MV-4-11 and THP-1 are very sensitive to BET inhibitors and show massive cell death upon BET inhibition (Zuber et al., Nature, 478 (2011), 524-8). Compound-mediated suppression of cell proliferation/viability was assessed by quantification of cellular ATP levels using the CellTiter-Glo (CTG) reagent (Promega). Briefly, cells were seeded in 20 μl fresh medium into 384-well plates, followed by addition of 5 μl medium containing compound dilutions at 5-fold their final intended concentration. Dose-response effects were assessed by 3-fold serial dilutions of the test compound, starting at 10 μM. Following incubation of the cells for 4 days at 37° C. and 5% CO2, the effect of inhibitors on cell viability was quantified following addition of 20 μl CTG and luminescence quantification (integration time: 100 ms) as per vendor manual, using a correspondingly equipped Tecan M200 multi-mode platereader (TECAN, Switzerland). For data analysis, the assay background value determined in wells containing medium, but no cells, was subtracted from all data points. To enable differentiation of cytotoxic from cytostatic compounds, the number of viable cells is assessed relative to that observed at the time of compound addition using a separate cell plate (day 0). The effect of a particular test compound concentration on cell proliferation/viability is expressed as percentage of the background- and day 0-corrected luminescence reading obtained for cells treated with vehicle only (DMSO, 0.1% final concentration), which is set as 100%, whereas that luminescence reading for wells containing medium is set as −100%. Compound concentrations leading to half-maximal (1050) and total growth inhibition (TGI) were determined using standard four parameter curve fitting.
In general terms: Cellular ATP, detected with luciferase, serves as a proxy for viable cell number.

For the next test, the target named is BRD3 (His-Brd3(20-477)) (Homo sapiens (Human), UniProt Q15059). The test is described as follows: TR-FRET in-vitro binding assay for BRD3. As to conditions: acetyl-histone H4 peptide. The method, then: All assays were performed in 384 well microtiter plates. Each assay plate contained 8-point serial dilutions for 40 test compounds, plus 16 high- and 16 low controls. Liquid handling and incubation steps were done on an Innovadyne Nanodrop Express equipped with a robotic arm (Thermo CatX, Perkin Elmer/Caliper Twister II) and an incubator (Liconic STX40, Thermo Cytomat 2C450). The assay plates were prepared by addition of 50 nl per well of compound solution in 90% DMSO HummingBird nanodispenser (Zinsser Analytic). The assay was started by stepwise addition of 4.5 μl per well of bromo domain protein (50 mM HEPES, pH 7.5, 0.005% Tween20, 0.1% BSA, 50 mM NaCl, 45 nM His-Brd2(60-472) or 45 nM His-Brd3(20-477) or 45 nM His-Brd4(44-477) all proteins produced in-house) and 4.5 μl per well of peptide solution (50 mM HEPES, pH 7.5, 0.005% Tween20, 0.1% BSA, 50 mM NaCl, 60 nM acetyl-histone H4 (AcK 5, 8, 12, 16) (Biosyntan GmbH)). Reactions were incubated at 30° C. for 35 minutes. Subsequently 4.5 μl per well detection mix (50 mM HEPES, pH 7.5, 0.005% Tween20, 0.1% BSA, 50 mM NaCl, 3 nM Eu-labeled anti-His6 antibody, 21 nM streptavidin-allophycocyanin) were added. After 35 minutes incubation at 30° C., plates were measured in a Perkin Elmer EnVision multilabel reader. Concentrations causing 50% inhibition (1050) values were determined from percent inhibition values at different compound concentrations by non-linear regression analysis.
Chain of BRD3 (His-Brd3(20-477)) (Q15059 20-477, species assumed): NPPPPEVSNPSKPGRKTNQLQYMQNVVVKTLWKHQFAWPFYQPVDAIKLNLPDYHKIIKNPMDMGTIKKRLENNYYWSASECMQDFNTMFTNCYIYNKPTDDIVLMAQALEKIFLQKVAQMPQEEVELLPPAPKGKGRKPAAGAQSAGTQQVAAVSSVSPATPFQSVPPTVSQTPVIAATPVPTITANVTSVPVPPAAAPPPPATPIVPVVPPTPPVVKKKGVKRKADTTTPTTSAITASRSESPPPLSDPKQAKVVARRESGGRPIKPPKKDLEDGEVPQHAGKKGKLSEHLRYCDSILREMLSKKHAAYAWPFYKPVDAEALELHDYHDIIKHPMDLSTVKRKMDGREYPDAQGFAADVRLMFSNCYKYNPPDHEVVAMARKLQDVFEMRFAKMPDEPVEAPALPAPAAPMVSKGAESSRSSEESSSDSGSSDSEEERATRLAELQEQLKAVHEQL
Test compounds were dissolved in DMSO (10 mM) and transferred into 1.4 mL flat bottom or V-shaped Matrix tubes carrying a unique 2D matrix. The stock solutions were stored at […] if not used immediately. For the test procedure the vials were defrosted and identified by a scanner whereby a working sheet was generated that guided the subsequent working steps. Compound dilutions were made in 96 well plates. This format enabled the assay of maximally 40 individual test compounds at 8 concentrations (single points) including 4 reference compounds, if desired (known BET inhibitors from the prior art, for this and other assays of the type disclosed herein). The dilution protocol included the production of “pre-dilution plates”, “master plates” and “assay plates”.
Pre-dilution plates: 96 polypropylene well plates were used as pre-dilution plates. A total of 4 pre-dilution plates were prepared including 10 test compounds each on the plate positions A1-A10, one standard compound at A11 and one DMSO control at A12. All dilution steps were done on a HamiltonSTAR robot. Master plates: 30 μL of individual compound dilutions including standard compound and controls of the 4 “pre-dilution plates” were transferred into a 384 “master plate” including the following concentrations 10000, 3003, 1000, 300, 100, 30, 10 and 3 μM, respectively in 90% of DMSO. Assay plates: Identical “assay plates” were then prepared by pipetting 50 nL each of compound dilutions of the “master plates” into 384-well “assay plates” by means of a HummingBird 384-channel dispenser. These plates were used directly for the assay which was performed in a total volume of 13.55 μL. This led to a final compound concentration of 37, 11, 3.7, 1.1, 0.37, 0.11, 0.037 and 0.011 μM and a final DMSO concentration of 0.37% in the assay. Cell Growth Inhibition Assay

Molecules are shown by their SMILES.

For the compound `Cc1cc(N2C(=O)c3c(C4CC4)nn(C)c3C2c2ccc(Cl)cc2)cn(C)c1=O` (stereo not drawn) [Example 1, 6-(4-chlorophenyl)-3-cyclopropyl-5-(1,5-dimethyl-6-oxo-1,6-dihydropyridin-3-yl)-1-methyl-5,6-dihydropyrrolo[3,4-c]pyrazol-4(1H)-one], halving of growth with THP-1 cells (Homo sapiens, 96 h) (GI50) required 0.0449 µM. The “THP-1 TGI” value in the test with THP-1 cells amounted to 0.104 µM. On BRD3 (His-Brd3(20-477)), this compound registered a 50% inhibitory concentration (IC50) of 0.03 µM.
For the compound `CNC1=C(C(=N)C2CC2)C(=O)N(c2cc(C)c(=O)n(C)c2)[C@@H]1c1ccc(Cl)cc1` [Example 2], in the test with THP-1 cells, halving of growth (GI50) required 0.0219 µM and the “THP-1 TGI” value turned out to be 0.0468 µM. The compound further came in with an IC50 on BRD3 (His-Brd3(20-477)) of 0.02 µM.
The compound `Cc1cc(N2C(=O)c3c(C4CC4)nn(CCO)c3C2c2ccc(Cl)cc2)cn(C)c1=O` (stereo not drawn) [Example 3, 6-(4-chlorophenyl)-3-cyclopropyl-5-(1,5-dimethyl-6-oxo-1,6-dihydropyridin-3-yl)-1-(2-hydroxyethyl)-5,6-dihydropyrrolo[3,4-c]pyrazol-4(1H)-one] displayed a GI50 with THP-1 cells (Homo sapiens, 96 h) of 0.0901 µM. The “THP-1 TGI” value in the test on THP-1 cells was found to be 0.264 µM. For the same compound, the IC50 on BRD3 (His-Brd3(20-477)) was 0.034 µM.
Taken in the same sequence, the figures for `COCCn1nc(C2CC2)c2c1C(c1ccc(Cl)cc1)N(c1cc(C)c(=O)n(C)c1)C2=O` (stereo not drawn) [Example 4, 6-(4-chlorophenyl)-3-cyclopropyl-5-(1,5-dimethyl-6-oxo-1,6-dihydropyridin-3-yl)-1-(2-methoxyethyl)-5,6-dihydropyrrolo[3,4-c]pyrazol-4(1H)-one] were 0.0456 µM, 0.1 µM and 0.013 µM.
Turning to `Cc1cc(N2C(=O)c3c(C4CC4)nn(-c4ccnn4C)c3C2c2ccc(Cl)cc2)cn(C)c1=O` (stereo not drawn) [Example 5, 6-(4-chlorophenyl)-3-cyclopropyl-5-(1,5-dimethyl-6-oxo-1,6-dihydropyridin-3-yl)-1-(1-methyl-1H-pyrazol-5-yl)-5,6-dihydropyrrolo[3,4-c]pyrazol-4(1H)-one], the 50% growth inhibitory concentration (GI50) in the test on THP-1 cells (Homo sapiens, 96 h) was 0.101 µM. In the test with THP-1 cells, the “THP-1 TGI” value stood at 0.179 µM. On BRD3 (His-Brd3(20-477)), the concentration for half-maximal inhibition (IC50) worked out at 0.082 µM.
As for `Cc1[nH]nc2c1C(=O)N(c1cc(Cl)c(=O)n(C)c1)C2c1ccc(Cl)cc1` (stereo not drawn) [Example 6, 5-(5-chloro-1-methyl-6-oxo-1,6-dihydropyridin-3-yl)-6-(4-chlorophenyl)-3-methyl-5,6-dihydropyrrolo[3,4-c]pyrazol-4(2H)-one], the concentration for 50% growth inhibition (GI50) in the test with THP-1 cells (Homo sapiens, 96 h) came out at 0.189 µM. The “THP-1 TGI” value in the test with THP-1 cells was found to be 0.352 µM. On BRD3 (His-Brd3(20-477)), this compound had an IC50 of 0.08 µM.
Taken in the same sequence, the figures for `COc1ncccc1-n1nc2c(c1C)C(=O)N(c1cc(Cl)c(=O)n(C)c1)C2c1ccc(Cl)cc1` (stereo not drawn) [Example 7b, 5-(5-chloro-1-methyl-6-oxo-1,6-dihydropyridin-3-yl)-6-(4-chlorophenyl)-2-(2-methoxypyridin-3-yl)-3-methyl-5,6-dihydropyrrolo[3,4-c]pyrazol-4(2H)-one] were 0.104 µM, 0.285 µM and 0.024 µM.
Taken in the same sequence, the figures for `COc1ncc(-n2nc(C)c3c2C(c2ccc(Cl)cc2)N(c2cc(Cl)c(=O)n(C)c2)C3=O)cn1` (stereo not drawn) [Example 8a, 5-(5-chloro-1-methyl-6-oxo-1,6-dihydropyridin-3-yl)-6-(4-chlorophenyl)-1-(2-methoxypyrimidin-5-yl)-3-methyl-5,6-dihydropyrrolo[3,4-c]pyrazol-4(1H)-one] were 0.127 µM, 0.493 µM and 0.12 µM.
Taken in the same sequence, the figures for `COc1ncc(-n2nc3c(c2C)C(=O)N(c2cc(Cl)c(=O)n(C)c2)C3c2ccc(Cl)cc2)cn1` (stereo not drawn) [Example 8b, 5-(5-chloro-1-methyl-6-oxo-1,6-dihydropyridin-3-yl)-6-(4-chlorophenyl)-2-(2-methoxypyrimidin-5-yl)-3-methyl-5,6-dihydropyrrolo[3,4-c]pyrazol-4(2H)-one] were 0.293 µM, 0.562 µM and 0.14 µM.

For orientation: GI50 means the concentration at which growth is held to half of that of the control. The IC50 is the concentration needed to halve the response being measured. A low value points to higher potency.
